Measured values from ChEMBL document CHEMBL1201862, “PubChem BioAssay data set” (2004).
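96-well plates; 48 h exposure; 5 concentrations. Endpoints by linear interpolation between flanking doses. Not reached: highest tested concentration assigned. Here, GI50 denotes the concentration required for 50% inhibition of growth.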 The source made the active and inactive calls. Cut-off read from the data, not from the text of the source: active = GI50 up to about 1.1 µM and inactive = higher.

Assays:
Assay in all cases: inhibition of tumour cell growth, NCI panel, 48 h
[1] = system: CCRF-CEM
[2] = system: EKVX
[3] = system: HCC 2998
[4] = system: HT-29
[5] = system: IGROV-1
[6] = system: KM12
[7] = system: M14
[8] = system: MDA-MB-231
[9] = system: OVCAR-4
[10] = system: SF-268
[11] = system: SF-539
[12] = system: SK-MEL-28
[13] = system: SN12C
[14] = system: SNB-19
[15] = system: SW-620
[16] = system: TK-10
[17] = system: U-251
[18] = system: ACHN
[19] = system: HOP-62

Measured: GI50

Cc1sc2nc3n(sc4nc5sc(C)c(C)c5c(=O)n43)c(=O)c2c1C
inactive: [1] 16.4 µM | [2] 30.3 µM | [3] > 100 µM | [4] > 100 µM | [5] > 100 µM | [6] > 100 µM | [7] > 100 µM | [8] 80.5 µM | [9] 63.8 µM | [10] > 100 µM | [11] > 100 µM | [12] > 100 µM | [13] > 100 µM | [14] > 100 µM | [15] 45.9 µM | [16] > 100 µM | [17] > 100 µM

COc1ccc(N2C(=O)CC(c3c[nH]c4ccccc34)C2=O)cc1 (centres undefined)
inactive: [18] > 100 µM | [1] > 100 µM | [2] > 100 µM | [3] > 100 µM | [19] > 100 µM | [4] > 100 µM | [5] > 100 µM | [7] > 100 µM | [8] > 100 µM | [10] > 100 µM | [11] > 100 µM | [12] > 100 µM | [13] > 100 µM | [14] > 100 µM | [15] > 100 µM | [16] > 100 µM | [17] > 100 µM

CCN(CC)CCOC(=O)CCN1CC2CCC(CC2)C1
inactive: [18] > 100 µM | [1] > 100 µM | [2] > 100 µM | [3] > 100 µM | [4] > 100 µM | [5] > 100 µM | [6] > 100 µM | [7] > 100 µM | [8] > 100 µM | [9] > 100 µM | [11] > 100 µM | [12] > 100 µM | [14] > 100 µM | [15] > 100 µM | [16] > 100 µM | [17] > 100 µM

NC1=NN(c2ccccc2)C2(c3ccncc3C(=O)O)C1C(N)=NN2c1ccccc1 (centres undefined)
inactive: [18] > 100 µM | [1] > 100 µM | [2] > 100 µM | [3] > 100 µM | [4] > 100 µM | [5] > 100 µM | [6] > 100 µM | [7] > 100 µM | [8] > 100 µM | [9] > 100 µM | [10] > 100 µM | [11] > 100 µM | [12] > 100 µM | [13] > 100 µM | [14] > 100 µM | [15] > 100 µM | [17] > 100 µM

COC(=O)C12CCC(C)(C)CC1C1=CCC3C4(C)CC(O)C(O)C(C)(C(=O)OC)C4CCC3(C)C1(CO)CC2 (centres undefined)
inactive: [18] 13.9 µM | [1] 14.3 µM | [2] 18.9 µM | [3] 13.9 µM | [19] 17.9 µM | [4] 13.6 µM | [5] 17.8 µM | [6] 9.38 µM | [7] 6.75 µM | [8] 17.4 µM | [9] 13.5 µM | [10] 18.5 µM | [11] 15.7 µM | [13] 18.3 µM | [14] 16.6 µM | [15] 11.4 µM | [16] 19 µM | [17] 18.5 µM

CC1(C)C/C=C\CCC(O)C(O)CCC(C)(C)C1=O (centres undefined)
inactive: [18] > 100 µM | [1] > 100 µM | [2] > 100 µM | [3] 17.1 µM | [19] > 100 µM | [4] > 100 µM | [5] > 100 µM | [6] > 100 µM | [8] > 100 µM | [9] > 100 µM | [10] > 100 µM | [11] > 100 µM | [12] > 100 µM | [13] > 100 µM | [14] > 100 µM | [15] > 100 µM | [16] > 100 µM | [17] > 100 µM

CC1C(=O)CC[C@@]2(C)C(=O)CCCC12O (some centres undefined)
inactive: [18] > 100 µM | [2] > 100 µM | [3] > 100 µM | [19] > 100 µM | [4] > 100 µM | [5] > 100 µM | [6] > 100 µM | [7] > 100 µM | [8] > 100 µM | [9] > 100 µM | [10] > 100 µM | [11] > 100 µM | [12] > 100 µM | [13] > 100 µM | [14] > 100 µM | [15] > 100 µM | [16] > 100 µM | [17] > 100 µM

CC1=C(C#N)C2C(=C(N)Oc3ccccc32)C(N)=N1 (centres undefined)
inactive: [18] 27.7 µM | [1] 30.1 µM | [2] 25.4 µM | [3] 29.4 µM | [19] 35.6 µM | [4] 27.2 µM | [5] 25.4 µM | [6] 26.4 µM | [7] 20.7 µM | [8] 14 µM | [9] 32.8 µM | [10] 24.5 µM | [11] 30.1 µM | [13] 23.7 µM | [14] 21.8 µM | [15] 32.9 µM | [16] 21.1 µM | [17] 34 µM

COc1ccc(-n2c(CCC(=O)O)nc3c2C(=O)c2ccccc2C3=O)cc1
inactive: [18] > 100 µM | [1] 88.9 µM | [2] > 100 µM | [3] > 100 µM | [19] > 100 µM | [4] > 100 µM | [6] > 100 µM | [7] > 100 µM | [8] > 100 µM | [9] > 100 µM | [10] > 100 µM | [11] > 100 µM | [12] > 100 µM | [13] > 100 µM | [14] > 100 µM | [15] > 100 µM | [16] > 100 µM | [17] > 100 µM

COc1cc2c(cc1OCCCN1C(=O)c3cccc4cccc(c34)C1=O)N=C[C@@H]1CCCN1C2=O
inactive: [18] 25.7 µM | [1] 5.65 µM | [2] > 100 µM | [3] > 63.7 µM | [19] > 86.7 µM | [4] 31.3 µM | [5] 12.2 µM | [6] 16.3 µM | [7] 36.2 µM | [8] > 55.8 µM | [9] 31.7 µM | [10] 39.6 µM | [11] 83.6 µM | [12] > 65.9 µM | [13] 48.5 µM | [14] > 92 µM | [15] 22.6 µM | [16] 30.3 µM | [17] 39.5 µM

O=C(Nc1ncc([N+](=O)[O-])s1)c1ccccc1O [TIZOXANIDE]
inactive: [18] 18.7 µM | [2] 16.5 µM | [3] 13.6 µM | [19] 20 µM | [4] 14.5 µM | [5] 23.6 µM | [6] 15.3 µM | [7] 20 µM | [8] 23.5 µM | [9] 38.3 µM | [10] 13.6 µM | [11] 45 µM | [12] 26.4 µM | [13] 17.5 µM | [14] 16.2 µM | [15] 34.1 µM | [16] 21.4 µM | [17] 14.9 µM
